Results reported in patent US20040248275A1, “Engineered bacterial aggregates” (priority 2003, published 2004).

Tests used:
Assay in all cases: Lectin aggregation of bacterial cells (microtitre wells, semi-quantitative score)
Type in all cases: cell-based
Design in all cases: key: Where the addition of lectins did not cause the aggregation of cells, a score of “0” was assigned; Lectins that caused cellular-aggregation to give small flocs in a turbid suspension were given a score of “+”; A score of “++” was given to lectin-cell aggregate mixes that resulted in large aggregates seen by eye in a turbid suspension; Lectins that caused cellular aggregation to give easily visible aggregates in a clear solution were given a score of “+++”
Details in all cases: cells O.D. 0.5 at 650 nm
S. haemolyticus = system: S. haemolyticus
Method: (§1) Assay approach: Six lectins were chosen to discover their suitability for the aggregation of different species of bacteria. These were Concanavalin A, Lentil lectin, Pseudomonas aeruginosa lectin, peanut lectin, Limulus polyphemus lectin and wheat germ lectin.
(§2) The ability of the lectins to aggregate bacterial cells was studied by mixing cells at an O.D. of 0.5 at 650 nm with different lectins at different concentrations. The extent of aggregation was determined by a semi-quantitative approach. […] Lectins that caused cellular-aggregation to give small flocs in a turbid suspension were given a score of “+”. […] Lectins that caused cellular aggregation to give easily visible aggregates in a clear solution were given a score of “+++”.

E. coli S17-1 (K12) = system: E. coli S17-1 (K12)
Method: as §1, §2

E. brevis = system: E. brevis
Method: as §1, §2

S. plymuthica = system: S. plymuthica
Method: as §1, §2

E. faecalis = system: E. faecalis
Method: as §1, §2

Pseudomonas sp. 2881 = system: Pseudomonas sp. 2881
Method: as §1, §2

S. paucimobilis = system: S. paucimobilis
Method: as §1, §2

C. aquaticum = system: C. aquaticum
Method: as §1, §2

C. freundii = system: C. freundii
Method: as §1, §2

E. coli C600 (K12) = system: E. coli C600 (K12)
Method: as §1, §2

K. pneumoniae = system: K. pneumoniae
Method: as §1, §2

Molecule	extent of aggregation (score) (S. haemolyticus; lectin 1 × 10^−1 mg/mL)	extent of aggregation (score) (S. haemolyticus; lectin 1 × 10^−2 mg/mL)	extent of aggregation (score) (S. haemolyticus; lectin 1 × 10^−3 mg/mL)	extent of aggregation (score) (E. coli S17-1 (K12); lectin 1 × 10^−1 mg/mL)	extent of aggregation (score) (E. coli S17-1 (K12); lectin 1 × 10^−2 mg/mL)	extent of aggregation (score) (E. coli S17-1 (K12); lectin 1 × 10^−3 mg/mL)	extent of aggregation (score) (E. brevis; lectin 1 × 10^−1 mg/mL)	extent of aggregation (score) (E. brevis; lectin 1 × 10^−2 mg/mL)	extent of aggregation (score) (E. brevis; lectin 1 × 10^−3 mg/mL)	extent of aggregation (score) (S. plymuthica; lectin 1 × 10^−1 mg/mL)	extent of aggregation (score) (S. plymuthica; lectin 1 × 10^−2 mg/mL)	extent of aggregation (score) (S. plymuthica; lectin 1 × 10^−3 mg/mL)	extent of aggregation (score) (E. faecalis; lectin 1 × 10^−1 mg/mL)	extent of aggregation (score) (E. faecalis; lectin 1 × 10^−2 mg/mL)	extent of aggregation (score) (E. faecalis; lectin 1 × 10^−3 mg/mL)	extent of aggregation (score) (Pseudomonas sp. 2881; lectin 1 × 10^−1 mg/mL)	extent of aggregation (score) (Pseudomonas sp. 2881; lectin 1 × 10^−2 mg/mL)	extent of aggregation (score) (Pseudomonas sp. 2881; lectin 1 × 10^−3 mg/mL)	extent of aggregation (score) (S. paucimobilis; lectin 1 × 10^−1 mg/mL)	extent of aggregation (score) (S. paucimobilis; lectin 1 × 10^−2 mg/mL)	further results
Concanavalin A	+++	++	+	+++	+++	+	+	+	0	+	+	+	0	+	++	+++	++	++	+	++	extent of aggregation (score) (S. paucimobilis; lectin 1 × 10^−3 mg/mL): 0; extent of aggregation (score) (C. aquaticum; lectin 1 × 10^−1 mg/mL): ++; extent of aggregation (score) (C. aquaticum; lectin 1 × 10^−2 mg/mL): ++; extent of aggregation (score) (C. aquaticum; lectin 1 × 10^−3 mg/mL): 0; extent of aggregation (score) (C. freundii; lectin 1 × 10^−1 mg/mL): +++; extent of aggregation (score) (C. freundii; lectin 1 × 10^−2 mg/mL): +; extent of aggregation (score) (C. freundii; lectin 1 × 10^−3 mg/mL): +; extent of aggregation (score) (E. coli C600 (K12); lectin 1 × 10^−1 mg/mL): +++; extent of aggregation (score) (E. coli C600 (K12); lectin 1 × 10^−2 mg/mL): +++; extent of aggregation (score) (E. coli C600 (K12); lectin 1 × 10^−3 mg/mL): +; extent of aggregation (score) (K. pneumoniae; lectin 1 × 10^−1 mg/mL): +++; extent of aggregation (score) (K. pneumoniae; lectin 1 × 10^−2 mg/mL): +; extent of aggregation (score) (K. pneumoniae; lectin 1 × 10^−3 mg/mL): +
Lentil lectin (protein, UniProt P02870 31-210; P02870 218-269, looked up) Lectin beta chain: TETTSFSITKFSPDQKNLIFQGDGYTTKGKLTLTKAVKSTVGRALYSTPIHIWDRDTGNVANFVTSFTFVIDAPSSYNVADEFTFFIAPVDTKPQTGGGYLGVFNSKEYDKTSQTVAVEFDTFYNAAWDPSNKERHIGIDVNSIKSVNTKSWNLQNGERANVVIAFNAATNVLTVTLTYP Lectin alpha chain: VTSYTLNEVVPLKDVVPEWVRIGFSATTGAEFAAHEVHSWSFHSELGGTSSS	+++	+	+	+++	++	+	+	0	0	+	+	+	+	+	++	+++	++	+	+	0	extent of aggregation (score) (S. paucimobilis; lectin 1 × 10^−3 mg/mL): 0; extent of aggregation (score) (C. aquaticum; lectin 1 × 10^−1 mg/mL): ++; extent of aggregation (score) (C. aquaticum; lectin 1 × 10^−2 mg/mL): +; extent of aggregation (score) (C. aquaticum; lectin 1 × 10^−3 mg/mL): 0; extent of aggregation (score) (C. freundii; lectin 1 × 10^−1 mg/mL): +++; extent of aggregation (score) (C. freundii; lectin 1 × 10^−2 mg/mL): +; extent of aggregation (score) (C. freundii; lectin 1 × 10^−3 mg/mL): +; extent of aggregation (score) (E. coli C600 (K12); lectin 1 × 10^−1 mg/mL): +++; extent of aggregation (score) (E. coli C600 (K12); lectin 1 × 10^−2 mg/mL): ++; extent of aggregation (score) (E. coli C600 (K12); lectin 1 × 10^−3 mg/mL): +; extent of aggregation (score) (K. pneumoniae; lectin 1 × 10^−1 mg/mL): ++; extent of aggregation (score) (K. pneumoniae; lectin 1 × 10^−2 mg/mL): +; extent of aggregation (score) (K. pneumoniae; lectin 1 × 10^−3 mg/mL): +
